From US9757424B2, “Compositions and methods of treating gliomas” (BioMed Valley Discoveries, Inc., priority 2011, dated 2017)

Experiments:
[1] = tested on: U87MG tumor fragments; assay: animal or person; settings: for combination effect with temozolomide (median group tumor burden at Day 36): dosed in combination with 5 mg/kg temozolomide, FIG. 19
Protocol: HRLN female nu/nu mice were seeded with 1 mm^3 U87MG tumor fragments subcutaneously in the flank. Final caliper and body weight measurements were taken on the last day of the study.
All animals were assessed periodically for body weight, as well as tumor burden, using standard protocols with mechanical calipers. […] Dosing was stopped for any group with two measurements of mean body weight loss of greater than 20%. The group was not euthanized, and recovery was allowed. Within a group with greater than 20% weight loss, individuals reaching the individual body weight loss endpoint were euthanized. If the group body weight loss was recovered, dosing may resume. […] Dosing was then resumed with the candidate agent at half the original dose. Animals were monitored as a group. The endpoint of the experiment was a mean tumor weight in control group (or group 1) of 2000 mm^3 or 60 days, whichever comes first. When the endpoint was reached, all the animals were euthanized.

[2] = tested on: U87MG human glioblastoma xenografts; assay: U87MG human glioblastoma xenograft, tumor growth delay, 49-day study (Example 2);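 note: female athymic nude mice with subcutaneous tumors, groups of ten, tumors measured twice weekly, endpoint at 2000 mm^3 tumor volume or Day 49, treated compared with control mice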
Protocol: The experiment consisted of groups (n=10) of female athymic nude mice bearing subcutaneous U87MG xenografts (75-144 mm^3) on Day 1. Candesartan was evaluated as monotherapies at dosages of 1, 5, 10 and 50 mg/kg administered intraperitoneally (i.p.) on a once daily for twenty-one days (qd×21) schedule. […] Dosing was initiated on Day 1, and tumors were measured twice each week until the study was ended on Day 49. Animals were monitored individually and each mouse was euthanized for endpoint when its tumor attained a volume of 2000 mm^3 (about 2 grams) or on the final day (Day 49), whichever came first. Tumor samples were collected at endpoint, and histopathology analyses were performed.
The time to endpoint (TTE) was calculated for each mouse. Treatment outcome was determined from percent tumor growth delay (% TGD), defined as the percent increase in median TTE of treated versus control mice, with differences in the TTE values between groups deemed statistically significant at P 0.05 using logrank survival analysis. Animals were also monitored for partial regression (PR) and complete regression (CR) responses. Treatment tolerability was assessed by body weight measurements and frequent observation for signs of treatment-related (TR) toxicity.
Treatment response was determined from an analysis of percent tumor growth delay (% TGD), defined as the percent increase in the median time to endpoint (TTE) in treated versus control mice; by logrank significance of differences in survival among treatment groups; and by regression responses. Plots of group mean tumor growth were also considered. Treatment tolerability was assessed by body weight measurements and frequent observation for clinical symptoms of treatment-related (TR) side effects.
Xenografts were initiated with U87MG human glioblastomas (Piedmont Research Center, Morrisville, N.C.) by serial subcutaneous transplantation in athymic nude mice. Each test mouse received a U87MG tumor fragment (1 mm^3) implanted subcutaneously in the right flank, and the growth of tumors was monitored as the average size approached the target range of 80 to 120 mm^3. […] Tumor volume was calculated using the formula: Tumor Volume (mm^3)=w^2×l/2 where w=width and l=length in mm of a U87MG tumor. Tumor weight may be estimated with the assumption that 1 mg is equivalent to 1 mm^3 of tumor volume. Therapeutic Agents
Doses of valsartan and candesartan were each formulated weekly, and were stored at 4° C. Valsartan dosing solutions were formulated at concentrations of 15 and 3 mg/mL to yield the desired 150 and 30 mg/kg dosages, respectively, in a dosing volume of 0.2 mL per 20 grams body weight (10 mL/kg). The required amount of valsartan powder for the 15 mg/mL solution was suspended in sterile saline, then dissolved with 0.1 N NaOH and pH adjusted to 7.4 with 0.1 N HCl. The 3 mg/mL valsartan dosing solution was prepared by diluting an aliquot of the 15 mg/mL valsartan solution with sterile saline. Candesartan doses were formulated in 0.5% carboxymethyl cellulose (CMC) in deionized water at concentrations of 5, 1, 0.5 and 0.1 mg/mL to yield the desired 50, 10, 5 and 1 mg/kg dosages, respectively, in a dosing volume of 10 mL/kg.
Each test agent was administered intraperitoneally (i.p.) once daily for twenty-one days (qd×21), unless otherwise indicated.
Group 1 was not treated and served as the control group for calculation of % TGD. […] Groups 4-7 received candesartan at 50, 10, 5 or 1 mg/kg, respectively. […] All doses were scaled to the body weights of the individual animals.
Tumors were measured twice each week using calipers.

[3] = combination: temozolomide 5 po qd x 5 + agent qd x 30 (doses as under E7)
[4] = combination: temozolomide 5 po qd x 5 + agent qd x 30 (doses as under E7), number of animals
[5] = Group 4: candesartan 50 mg/kg ip qd x 21
[6] = Group 5: candesartan 10 mg/kg ip qd x 21
[7] = Group 6: candesartan 5 mg/kg ip qd x 21
[8] = Group 7: candesartan 1 mg/kg ip qd x 21

CCOc1nc2cccc(C(=O)OC(C)OC(=O)OC3CCCCC3)c2n1Cc1ccc(-c2ccccc2-c2nn[nH]n2)cc1 (stereo not drawn) [Candesartan, candesartan cilexetil]
MTV(n) Day 29 (median tumor volume) ([1]; combination: temozolomide 5 po qd x 5 + agent qd x 30 (Candesartan 10 ip, Valsartan 30 ip, Carvedilol 200 po, Irbesartan 100 po, Amlodipine 10 ip, Clonidine 1 ip, Olmesartan 10 po, Ramipril 5 po, Enalapril 5 ip, Benazepril 10 ip, Quinapril 15 po, Aliskiren 50 ip, Guanabenz 1 ip, Diltiazem 20 po, Lercanidipine 3 po, Labetalol 10 sc)): 32 (8) mm^3 | Deaths NTR (non-treatment-related death) [1, 3]: 0 | Deaths TR (treatment-related death) [1, 3]: 0 | Mean BW Nadir, day of nadir [1, 3]: Day 3 | Regression CR (complete regression) [1, 4]: 0 | Regression PR (partial regression) [1, 4]: 6 | % TGI (percent tumor growth inhibition, compared to Group 1) ([1]; combination: temozolomide 5 po qd x 5 + agent qd x 30 (doses as under E7), vs Group 1 temozolomide 5 alone): 92% | % TGD (vs Group 1) [2, 5]: 9% | Deaths NTR [2, 5]: 0 | Deaths TR [2, 5]: 0 | MTV (n) Day 49 [2, 5]: 1 (1) mm^3 | Median TTE [2, 5]: 12.7 days | Regressions CR [2, 5]: 1 | Regressions PR [2, 5]: 0 | Regressions TFS [2, 5]: 1 | T − C (TGD vs Group 1) [2, 5]: 1.1 days | % TGD (vs Group 1) [2, 6]: 20% | Deaths NTR [2, 6]: 0 | Deaths TR [2, 6]: 0 | Median TTE [2, 6]: 13.9 days | Regressions CR [2, 6]: 0 | Regressions PR [2, 6]: 0 | Regressions TFS [2, 6]: 0 | T − C (TGD vs Group 1) [2, 6]: 2.3 days | % TGD (vs Group 1) [2, 7]: 16% | Deaths NTR [2, 7]: 0 | Deaths TR [2, 7]: 0 | Median TTE [2, 7]: 13.5 days | Regressions CR [2, 7]: 0 | Regressions PR [2, 7]: 0 | Regressions TFS [2, 7]: 0 | T − C (TGD vs Group 1) [2, 7]: 1.9 days | % TGD (vs Group 1) [2, 8]: 7% | Deaths TR [2, 8]: 0 | Median TTE [2, 8]: 12.4 days | Regressions CR [2, 8]: 0 | Regressions PR [2, 8]: 0 | Regressions TFS [2, 8]: 0 | T − C (TGD vs Group 1) [2, 8]: 0.8 days | Deaths NTR ([2]; Group 7: candesartan 1 mg/kg ip qd x 21, accidental death on Day 5): 1 | efficacy conclusion ([2]; candesartan monotherapy 1, 5, 10, 50 mg/kg i.p. qd×21): not efficacious as monotherapy

COc1ccccc1OCCNCC(O)COc1cccc2[nH]c3ccccc3c12 (stereo not drawn) [Carvedilol]
Deaths NTR (non-treatment-related death) [1, 3]: 0 | Deaths TR (treatment-related death) [1, 3]: 0

Clc1cccc(Cl)c1N=C1NCCN1 [Clonidine]
Deaths NTR (non-treatment-related death) [1, 3]: 0 | Deaths TR (treatment-related death) [1, 3]: 0 | Mean BW Nadir, day of nadir [1, 3]: Day 3

CCOC(=O)[C@H](CCc1ccccc1)N[C@@H](C)C(=O)N1CCC[C@H]1C(=O)O [Enalapril]
Deaths NTR (non-treatment-related death) [1, 3]: 0 | Deaths TR (treatment-related death) [1, 3]: 0

N=C(N)N/N=C/c1c(Cl)cccc1Cl [Guanabenz]
Deaths NTR (non-treatment-related death) [1, 3]: 0 | Deaths TR (treatment-related death) [1, 3]: 0

CC(CCc1ccccc1)NCC(O)c1ccc(O)c(C(N)=O)c1 (stereo not drawn) [Labetalol]
Deaths NTR (non-treatment-related death) [1, 3]: 0 | Deaths TR (treatment-related death) [1, 3]: 0

COCCCOc1cc(C[C@@H](C[C@H](N)[C@@H](O)C[C@H](C(=O)NCC(C)(C)C(N)=O)C(C)C)C(C)C)ccc1OC [aliskerin, aliskiren]
Deaths NTR (non-treatment-related death) [1, 3]: 0 | Deaths TR (treatment-related death) [1, 3]: 0

CCOC(=O)C1=C(COCCN)NC(C)=C(C(=O)OC)C1c1ccccc1Cl (stereo not drawn) [amlodipine]
Deaths NTR (non-treatment-related death) [1, 3]: 1 | Deaths TR (treatment-related death) [1, 3]: 0 | Mean BW Nadir, day of nadir [1, 3]: Day 3

CCOC(=O)[C@H](CCc1ccccc1)N[C@H]1CCc2ccccc2N(CC(=O)O)C1=O [benazepril]
Deaths NTR (non-treatment-related death) [1, 3]: 1 | Deaths TR (treatment-related death) [1, 3]: 0 | combination effect with temozolomide (median group tumor burden at Day 36) [1]: next in rank-order potency

COc1ccc([C@@H]2Sc3ccccc3N(CCN(C)C)C(=O)[C@@H]2OC(C)=O)cc1 [diltiazem]
Deaths NTR (non-treatment-related death) [1, 3]: 0 | Deaths TR (treatment-related death) [1, 3]: 0 | combination effect with temozolomide (median group tumor burden at Day 36) [1]: modest combination effects

CCCCC1=NC2(CCCC2)C(=O)N1Cc1ccc(-c2ccccc2-c2nnn[nH]2)cc1 [irbesartan]
Deaths NTR (non-treatment-related death) [1, 3]: 0 | Deaths TR (treatment-related death) [1, 3]: 0 | Mean BW Nadir, day of nadir [1, 3]: Day 3

COC(=O)C1=C(C)NC(C)=C(C(=O)OC(C)(C)CN(C)CCC(c2ccccc2)c2ccccc2)C1c1cccc([N+](=O)[O-])c1 (stereo not drawn) [lercanidipine]
combination effect with temozolomide (median group tumor burden at Day 36) [1]: modest combination effects

CCCc1nc(C(C)(C)O)c(C(=O)O)n1Cc1ccc(-c2ccccc2-c2nnn[nH]2)cc1 [olmesartan]
Mean BW Nadir, day of nadir [1, 3]: Day 3

CCOC(=O)[C@H](CCc1ccccc1)N[C@@H](C)C(=O)N1Cc2ccccc2C[C@H]1C(=O)O [quinapril]
Deaths NTR (non-treatment-related death) [1, 3]: 0 | Deaths TR (treatment-related death) [1, 3]: 0 | Mean BW Nadir, day of nadir [1, 3]: Day 3 | combination effect with temozolomide (median group tumor burden at Day 36) [1]: next in rank-order potency

CCOC(=O)[C@H](CCc1ccccc1)N[C@@H](C)C(=O)N1[C@H](C(=O)O)C[C@@H]2CCC[C@@H]21 [ramipril]
Deaths NTR (non-treatment-related death) [1, 3]: 0 | Deaths TR (treatment-related death) [1, 3]: 0 | Mean BW Nadir, day of nadir [1, 3]: Day 3 | combination effect with temozolomide (median group tumor burden at Day 36) [1]: next in rank-order potency

CCCCC(=O)N(Cc1ccc(-c2ccccc2-c2nnn[nH]2)cc1)[C@H](C(=O)O)C(C)C [valsartan]
Deaths NTR (non-treatment-related death) [1, 3]: 0 | Deaths TR (treatment-related death) [1, 3]: 0
